Laboratory results from patent publication US20210255193A1, “LYSINE REACTIVE PROBES AND USES THEREOF” (The Scripps Research Institute, priority 2017, published 2021).

What was measured:
[1] = molecular target: T1, ABHD10 Abhydrolase domain-containing protein 10, mitochondrial (Homo sapiens, UniProt Q9NUJ1); test: competitive isoTOP-ABPP; assay type: binding; conditions: for isoTOP-ABPP ratio (R) at liganded lysine Q9NUJ1_K185: 50 uM, in vitro, sol, 231
T1 construct: endogenous in cells; host or cells: MDA-MB-231 lysate
T1 sequence (Q9NUJ1 53-306): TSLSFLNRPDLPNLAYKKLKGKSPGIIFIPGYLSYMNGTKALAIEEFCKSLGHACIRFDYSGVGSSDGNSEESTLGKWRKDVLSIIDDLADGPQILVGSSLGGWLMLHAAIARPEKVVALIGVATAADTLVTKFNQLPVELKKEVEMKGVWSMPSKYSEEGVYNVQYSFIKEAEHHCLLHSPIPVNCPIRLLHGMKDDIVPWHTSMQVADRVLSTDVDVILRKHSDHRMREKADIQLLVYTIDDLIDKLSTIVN
Protocol: (§1) In vitro covalent fragment treatment for isoTOP-ABPP. All compounds were made up as solutions in DMSO (100×) and were used at a final concentration of 50 μM for activated esters and 100 μM for guanidinylating agents. For each profiling sample, 0.5 ml of lysate was treated with 5 μl of the 100× compound stock solution or 5 μl of DMSO. Samples were treated with activated esters for
(§2) STP-alkyne labeling and click chemistry. For concentration-dependent reactivity measurements by isoTOP-ABPP, 0.5 ml proteome aliquots were treated at ambient temperature with 1 mM STP-alkyne 1 (5 μl of 100 mM stock in DMSO) and 0.1 mM STP alkyne 1 (5 μl of 10 mM stock in DMSO), respectively. For competitive isoTOP-ABPP, after in vitro fragment treatment (detailed above), the samples were labeled for 1 h at ambient temperature with 0.1 mM STP-alkyne 1 (5 μl of 10 mM stock in DMSO). Samples were conjugated by copper-mediated azide-alkyne cycloaddition (CuAAC) to either the light (1 mM STP-alkyne or fragment treated) or heavy (0.1 mM STP-alkyne or DMSO treated) TEV tags (10 μl of 5 mM stocks in DMSO, final concentration=100 μM) using tris(2-carboxyethyl)phosphine hydrochloride
(§3) R value calculation and processing. The ratios of light and heavy MS1 peaks for each unique peptide were quantified with a CIMAGE software using default parameters (3 MS1 acquisitions per peak and signal to noise threshold set to 2.5). For reactivity measurements by isoTOP-ABPP, the R value was calculated from the ratio of MS1 peak areas, comparing the 1 mM STP alkyne sample (light TEV tag) with the 0.1 mM STP alkyne sample (heavy TEV tag). For competitive isoTOP-ABPP, the R value was calculated from the ratio of MS1 peak areas, comparing the DMSO treated sample (heavy TEV tag) with the compound treated sample (light TEV tag). […] Ratios for unique peptide entries are calculated for each experiment; overlapping peptides with the same modified lysine (for example, different charge states, MudPIT chromatographic steps or tryptic termini) are grouped together and the median ratio is reported as the final ratio (R). The peptide ratios reported by CIMAGE were further filtered to ensure the removal or correction of low-quality ratios in each individual data set. The quality filters applied were the following: removal of half tryptic peptides; for ratios with high standard deviations from the median (90% of the median or above) the lowest ratio was taken instead of the median; removal of peptides with R=20 and only a single MS2 event triggered during the elution of the parent ion; manual annotation of all the peptides with ratios of 20, removing any peptides with low quality elution profiles that remained after the previous curation steps (only done for competitive isoTOP-ABPP).
(§4) Cross-data processing for fragment screening. For compound treated samples, biological replicates of the same condition were averaged, if the standard deviation was below 60% of the mean; otherwise, for lysines with at least one R value <4 for a particular compound, the lowest value of the ratio set was taken. For lysines, where all R values for a particular compound were ≥4, the average was reported. For peptides containing several possible modified lysines, the lysine with the highest number of quantification events was used for analysis and the remaining, redundant peptides were reported as alternative modification sites. Peptides included in the aggregate dataset (those used for further bioinformatics and statistical analyses) were required to have been quantified in 2 experiments for competitive isoTOP-ABPP. Lysines were categorized as liganded, if they had at least one ratio R≥4 (hit fragments). For liganded lysines with R=20 for all liganding events, lysines were required to have been quantified with R=20 in two separate experiments and were further required to have been quantified with R<20 in one additional experiment.

[2] = molecular target: T2, TPMT Thiopurine S-methyltransferase (Homo sapiens, UniProt P51580); test: competitive isoTOP-ABPP; assay type: binding; conditions: for isoTOP-ABPP ratio (R) at liganded lysine P51580_K32: 50 uM, in vitro, sol, 231
T2 construct: isoTOP-ABPP experiments performed in cell lysates (in vitro); endogenous in cells; host or cells: soluble proteome of human cancer cell lines (MDA-MB-231; Ramos and Jurkat also prepared)
T2 sequence (P51580 1-245): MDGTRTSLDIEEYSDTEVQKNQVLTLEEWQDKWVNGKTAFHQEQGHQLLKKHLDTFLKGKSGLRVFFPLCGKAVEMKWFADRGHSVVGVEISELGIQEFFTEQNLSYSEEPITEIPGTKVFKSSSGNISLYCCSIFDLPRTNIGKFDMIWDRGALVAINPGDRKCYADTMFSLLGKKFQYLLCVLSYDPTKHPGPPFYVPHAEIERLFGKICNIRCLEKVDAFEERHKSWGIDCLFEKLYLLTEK
Protocol: as §1, §2, §3, §4

CC(C)(C)OC(=O)NCCCC(=O)Oc1ccc([N+](=O)[O-])cc1[N+](=O)[O-] [fragment 41, 2,4-Dinitrophenyl 4-((tert-butoxycarbonyl)amino)butanoate]
isoTOP-ABPP ratio (R) at liganded lysine Q9NUJ1_K185 [1]: 3.3
isoTOP-ABPP ratio (R) at liganded lysine P51580_K32 [2]: 1.5

O=C(Oc1ccc([N+](=O)[O-])cc1[N+](=O)[O-])C(c1ccccc1)(c1ccccc1)c1ccccc1 [fragment 42, 2,4-Dinitrophenyl 2,2,2-triphenylacetate]
isoTOP-ABPP ratio (R) at liganded lysine Q9NUJ1_K185 [1]: 1.0
isoTOP-ABPP ratio (R) at liganded lysine P51580_K32 [2]: 0.9

CC(=O)Oc1ccc([N+](=O)[O-])cc1[N+](=O)[O-] [fragment 43, 2,4-Dinitrophenyl acetate]
isoTOP-ABPP ratio (R) at liganded lysine Q9NUJ1_K185 [1]: 1.3
isoTOP-ABPP ratio (R) at liganded lysine P51580_K32 [2]: 1.5

N#Cc1ccc(C(=O)Oc2ccc([N+](=O)[O-])cc2[N+](=O)[O-])cc1 [fragment 44, 2,4-Dinitrophenyl 4-cyanobenzoate]
isoTOP-ABPP ratio, lysine Q9NUJ1_K185 ([1]; 50 uM_231_sol_in vitro): 1.2
isoTOP-ABPP ratio, lysine P51580_K32 ([2]; 50 uM_231_sol_in vitro): 1.4

O=C(CCc1ccc2c(c1)OCO2)Oc1ccc([N+](=O)[O-])cc1[N+](=O)[O-] [fragment 45, 2,4-Dinitrophenyl 3-(benzo[d][1,3]dioxol-5-yl)propanoate]
isoTOP-ABPP ratio, lysine Q9NUJ1_K185 ([1]; 50 uM_231_sol_in vitro): 1.2
isoTOP-ABPP ratio, lysine P51580_K32 ([2]; 50 uM_231_sol_in vitro): 2.3

O=C(ON1C(=O)CCC1=O)c1cc(C(F)(F)F)cc(C(F)(F)F)c1 [fragment 46, 3,5-Bis(trifluoromethyl)benzoic acid NHS ester]
isoTOP-ABPP ratio, lysine Q9NUJ1_K185 ([1]; 50 uM_231_sol_in vitro): 1.2
isoTOP-ABPP ratio, lysine P51580_K32 ([2]; 50 uM_231_sol_in vitro): 20.0

O=C(Oc1c(F)c(F)c(C(F)(F)F)c(F)c1F)c1cc(C(F)(F)F)cc(C(F)(F)F)c1 [fragment 47, 2,3,5,6-Tetrafluoro-4-(trifluoromethyl)phenyl 3,5-bis(trifluoromethyl)benzoate]
isoTOP-ABPP ratio, lysine Q9NUJ1_K185 ([1]; 50 uM_231_sol_in vitro): 1.8
isoTOP-ABPP ratio, lysine P51580_K32 ([2]; 50 uM_231_sol_in vitro): 9.5

O=C(Oc1c(F)c(F)cc(F)c1F)c1cc(C(F)(F)F)cc(C(F)(F)F)c1 [fragment 48, 2,3,5,6-Tetrafluorophenyl 3,5-bis(trifluoromethyl)benzoate]
isoTOP-ABPP ratio, lysine Q9NUJ1_K185 ([1]; 50 uM_231_sol_in vitro): 2.7
isoTOP-ABPP ratio, lysine P51580_K32 ([2]; 50 uM_231_sol_in vitro): 4.4

CC(C)(C)OC(=O)N=C(NC(=O)OC(C)(C)C)n1cccn1 [fragment 50, reference compound]
isoTOP-ABPP ratio, lysine Q9NUJ1_K185 ([1]; 100 uM_231_sol_in vitro): 1.3
isoTOP-ABPP ratio, lysine P51580_K32 ([2]; 100 uM_231_sol_in vitro): 11.7

NC(=O)c1cc(C(F)(F)F)cc(C(F)(F)F)c1 [fragment 51, reference compound]
isoTOP-ABPP ratio, lysine Q9NUJ1_K185 ([1]; 50 uM_231_sol_in vitro): 1.0
isoTOP-ABPP ratio, lysine P51580_K32 ([2]; 50 uM_231_sol_in vitro): 0.8
